The text below walks through data of patent US12617777B2, “GPR84 antagonists and uses thereof” (Liminal BioSciences Limited, priority 2021, dated 2026).

This assay has as its target T1, human GPR84 receptor (Homo sapiens, UniProt Q9NQS5).
T1 construct: host or cells: HEK293, transient transfection
Put plainly: Gαi biosensor BRET assay in HEK293 cells (antagonism of ZQ-16). It counts as cell-based. The note with it: for inhibition at 10 µM: HEK293, single concentration 10 μM (designated F); for pIC50: HEK293 cells, antagonism of 200 nmol/L ZQ-16; for inhibition at 2 µM: HEK293, single concentration 2 μM (designated A). The method, boiled down:
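Antagonist mode: test compound 5 min at 37° C, followed by ZQ-16 agonist (200 nmol/L, 5 min, room temperature), in HEK293 cells transfected with GPR84 plus Rluc8-tagged Gαi2, GFP10-Gγ2 and Gβ1. Readout as GFP10/Rluc8 emission ratio after 5 μmol/L coelenterazine 400A, net of Rluc8-only and vehicle signal.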

pIC50: −log10 of the molar value. Some results are limits rather than exact numbers.

T1 sequence (Q9NQS5 whole entry): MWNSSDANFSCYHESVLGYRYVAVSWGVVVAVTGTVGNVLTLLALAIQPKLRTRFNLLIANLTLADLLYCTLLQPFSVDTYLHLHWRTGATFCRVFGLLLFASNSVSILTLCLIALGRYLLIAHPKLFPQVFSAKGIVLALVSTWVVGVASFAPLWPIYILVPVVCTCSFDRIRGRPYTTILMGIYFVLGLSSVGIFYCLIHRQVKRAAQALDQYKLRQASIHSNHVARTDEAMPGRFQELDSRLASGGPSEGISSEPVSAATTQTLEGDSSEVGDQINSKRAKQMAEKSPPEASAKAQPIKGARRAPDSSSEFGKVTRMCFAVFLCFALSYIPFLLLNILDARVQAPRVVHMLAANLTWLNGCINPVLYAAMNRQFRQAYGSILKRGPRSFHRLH

Turning to `COC(c1cn(CC2Oc3ccccc3O2)nn1)c1cc(C#CC2CC2)ccc1C` (stereo not shown) [Compound I-605], the inhibition (as a rule, the relative decrease from the control value, in per cent) at 10 µM is above 75% and the pIC50 (commonly the IC50 on a negative log10 scale, so that one unit is a factor of ten) was 6.00 to 6.52.

Take `COc1ccc(-c2cn(CC3CCCCO3)nn2)c(C)c1` (stereo not shown) [Compound I-412]: the inhibition at 10 µM is at most 25%.

Consider `Cc1cc(N2CCN(Cc3ccccn3)CC2)ccc1-c1cn(C[C@H]2CCCCO2)cn1` [Compound I-671], for which the inhibition at 10 µM was above 75% and the pIC50 is 5.52 to 6.00.

Regarding `COc1cc(C)c(-c2cn(CC3CCCCO3)nn2)cc1OC` (stereo not shown) [Compound I-257], the inhibition at 10 µM is at most 25%.

For `Cc1cc(N2CCC3(CC2)CN(Cc2ccccc2)C3)ccc1-c1cn(CC2CCCCO2)nn1` (stereo not shown) [Compound I-173], the inhibition at 10 µM is at most 25%.

`Cc1cc(N2CCCC(N(C)Cc3ccccc3)C2)ccc1-c1cn(CC2CCCCO2)nn1` (stereo not shown) [Compound I-171] showed an inhibition at 10 µM above 75% and a pIC50 of 5.52 to 6.00.

`Cc1cc(N2CC3CCC(C2)N3Cc2ccccn2)ccc1-c1cn(CC2CCCCO2)nn1` (stereo not shown) [Compound I-466]: the inhibition at 10 µM is at most 25%.

For `Cc1ccc(-c2ccc(-c3cn(C[C@H]4CCCCO4)nn3)nc2)cn1` [Compound I-32], the inhibition at 10 µM is at most 25%.

Consider `CC(=O)NCC#Cc1ccc(-c2cn(C[C@H]3CCCCO3)nn2)c(C)c1` [Compound I-193], for which the inhibition at 10 µM lay in the range of 25 to 50%.

Take `Cc1cc(N2CC3(COC3)C2)ccc1-c1cn(CC2CCCCO2)nn1` (stereo not shown) [Compound I-113]: the inhibition at 10 µM was in the range of 25 to 50%.

Molecule `Cc1cc(C#CCO)cnc1-c1cn(C[C@H]2CCCCO2)nn1` [Compound I-272] returned an inhibition at 10 µM of 50 to 75%.

The molecule `COC(c1cn(CC2CC(C)(C)CO2)nn1)c1cc(C#CC2CC2)ccc1C` (stereo not shown) [Compound I-642] had an inhibition at 10 µM above 75% and a pIC50 of 5.52 to 6.00.

As for `Cc1ccccc1C#Cc1cn(CC2OCC(C)(C)CO2)nn1` [Compound I-791], the inhibition at 2 µM is above 75%.

Molecule `Cc1ccc(C#CC2CC2)cc1-c1nnc(CC2CCCCO2)o1` (stereo not shown) [Compound I-343] had an inhibition at 10 µM of 50 to 75%.

For the molecule `Cc1cc(N2CCN(c3cccnc3)CC2)ccc1-c1cn(CC2CCCCO2)nn1` (stereo not shown) [Compound I-545], the inhibition at 10 µM is at most 25%.

In turn, `Cc1cccc(-c2cn(CC#Cc3ccc(-c4cn(CC5CCCCO5)nn4)c(C)c3)nn2)c1` (stereo not shown) [Compound I-492] had an inhibition at 10 µM above 75% and a pIC50 of at least 6.52.

The molecule `CN(C)c1cc(N2CCOCC2)ccc1-c1cn(CC2OCC(C)(C)CO2)nn1` [Compound I-863] yielded an inhibition at 2 µM above 75%.

Take `Cc1c(-c2cccc(C#CC3CC3)c2)cnn1CC1CCCCO1` (stereo not shown) [Compound I-322]: the inhibition at 25 µM (HEK293, single concentration 25 μM (designated I)) is at most 25%.

As for `Cc1cc(OCC(F)(F)F)cnc1-c1cn(CC2OCC(C)(C)O2)nn1` (stereo not shown) [Compound I-639], the inhibition at 10 µM is at most 25%.

Consider `Cc1cc2ccc(N3CC(C)(C)C3)cc2nc1-c1cn(CC2CCCCO2)nn1` (stereo not shown) [Compound I-622], for which the inhibition at 2 µM is at most 25%.

Regarding `CN(CC#Cc1cnc(-c2cn(CC3OCC(C)(C)CO3)nn2)c(OC2CC2)c1)C1CC1` [Compound I-858], the inhibition at 2 µM was above 75%.

`CC1(C)COC(Cn2cc(-c3ncc(C#CCN4CC(C)(C)C4)cc3OCC(F)(F)F)nn2)OC1` [Compound I-722] showed an inhibition at 2 µM above 75% and a pIC50 of at least 6.52.

`Cc1cc(N2CCC[C@H](N(C)Cc3ccccc3)C2)ccc1-c1cn(C[C@H]2CCCCO2)nn1` (stereo in doubt) [Compound I-240] had an inhibition at 10 µM above 75%.

`Cc1cc(N2CC(C)(C)C2)c(Cl)cc1-c1cn(C[C@H]2CCCCO2)nn1` [Compound I-421]: the inhibition at 10 µM is above 75%.

The molecule `CCN(CC)c1cc(N2CC(C)(CO)C2)c(F)cc1-c1cn(CC2OCC3(CC3)CO2)nn1` [Compound I-801] showed an inhibition at 2 µM above 75% and a pIC50 of at least 6.52.

On to `Cc1cc(C#CCN2CCN(c3ccccc3)CC2)ccc1-c1cn(CC2CCCCO2)nn1` (stereo not shown) [Compound I-867], for which the pIC50 is at least 6.52.

The molecule `Cc1cc(N2CCCC23CNC3)ccc1-c1cn(CC2CCCCO2)nn1` (stereo not shown) [Compound I-150] registered an inhibition at 10 µM of at most 25%.
